According to ChEMBL document CHEMBL1130936, “Design, synthesis, and biological activity of novel purine and bicyclic pyrimidine factor Xa inhibitors” (Bioorg Med Chem Lett, 1998):

Assays:
[1] = molecular target: Prothrombin (Homo sapiens, UniProt P00734); assay: Compound was tested for inhibitory activity against human thrombin
[2] = molecular target: T1, Serine protease 1 (Bos taurus, UniProt P00760); assay: Compound was tested for inhibitory activity against bovine trypsin
T1 sequence (P00760 whole entry): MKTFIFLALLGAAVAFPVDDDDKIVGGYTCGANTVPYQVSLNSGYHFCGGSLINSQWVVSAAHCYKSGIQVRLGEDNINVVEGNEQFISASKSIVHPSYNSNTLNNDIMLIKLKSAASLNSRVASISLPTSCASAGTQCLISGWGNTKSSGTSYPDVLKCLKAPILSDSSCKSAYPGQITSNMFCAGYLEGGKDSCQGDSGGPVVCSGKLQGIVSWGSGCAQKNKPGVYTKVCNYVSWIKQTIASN

[3] = molecular target: Coagulation factor X (Homo sapiens, UniProt P00742); assay: Compound was tested for inhibitory activity against human Coagulation factor X
Coagulation factor X, sequence (P00742 41-179 limits assumed): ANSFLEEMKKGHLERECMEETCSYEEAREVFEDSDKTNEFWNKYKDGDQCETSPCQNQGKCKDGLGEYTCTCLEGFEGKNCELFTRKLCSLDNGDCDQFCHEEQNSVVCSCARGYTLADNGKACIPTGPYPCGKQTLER
Coagulation factor X, sequence (P00742 235-488 limits assumed): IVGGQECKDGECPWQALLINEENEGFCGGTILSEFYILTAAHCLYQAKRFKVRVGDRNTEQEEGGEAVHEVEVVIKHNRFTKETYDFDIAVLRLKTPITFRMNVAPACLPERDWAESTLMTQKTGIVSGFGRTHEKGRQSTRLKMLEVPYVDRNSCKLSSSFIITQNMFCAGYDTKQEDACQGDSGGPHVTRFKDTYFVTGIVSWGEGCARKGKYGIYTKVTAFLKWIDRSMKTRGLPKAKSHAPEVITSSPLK

Compound | Ki [1] | Ki [2] | Ki [3]
Cc1c(F)c(Oc2cccc(C(=N)N)c2)nc(Oc2cccc(C(=O)N(C)C)c2)c1F | > 5 µM |  | 
N=C(N)c1ccc(/C=C2/CCCC/C(=C/c3ccc(C(=N)N)cc3)C2=O)cc1 | 0.43 µM | 0.03 µM | 
Cc1nc2c(Oc3cc(C(=N)N)ccc3O)nc(Oc3cccc(C(=O)N(C)C)c3)nc2n1Cc1ccccc1 | 0.71 µM | 0.15 µM | 0.00042 µM
Cc1nc2c(Oc3cccc(C(=O)N(C)C)c3)nc(Oc3cc(C(=N)N)ccc3O)nc2n1Cc1ccccc1 | 1.3 µM | 0.76 µM | 0.01 µM
CN(C)C(=O)c1cccc(Oc2nc(Oc3cc(C(=N)N)ccc3O)nc3c2NC(=O)CN3)c1 | > 5 µM | 2.2 µM | 0.081 µM
CN(C)C(=O)c1cccc(Oc2nc3c(c(Oc4cc(C(=N)N)ccc4O)n2)NC(=O)CN3)c1 | 1 µM | 0.32 µM | 0.019 µM
CN(C)C(=O)c1cccc(Oc2nc(Oc3cc(C(=N)N)ccc3O)nc3c2NC(=O)CO3)c1 | > 5 µM | > 5 µM | 0.106 µM
